Like-named read-outs stand apart in the source and are kept apart here.
Assays:
[1] = tested on: rats; experiment: in vivo
Description: (§1) Following this study, 3- and 6-month repeat dose toxicology studies were completed at doses of 30, 100, and 300 mg/kg.

[2] = in vivo; conditions: both, rat, in vivo
Description: as §1

[3] = tested on: minipigs; conditions: 6 months
[4] = tested on: rats; conditions: 6 months, 30, 100, 300 mg/kg
[5] = tested on: healthy volunteers
Description: (§3) The first panel was administered a singe dose of 50 mg, followed 48 hours later by 4½ days of multiple dosing (twice daily) at 50 mg Q12 hours. The second panel was administered a singe dose of 100 mg, followed 48 hours later by 4½ days of multiple dosing (twice daily) at 100 mg Q12 hours. Safety observations included vital signs, physical examination, clinical laboratory tests, ECGs, and adverse event reporting. Blood samples were collected pre-dose on Day 1 and serially for 48 hours post-dose to assess the single-dose pharmacokinetics.

[6] = tested on: minipigs
[7] = clinical; conditions: human, plasma
Description: as §3

[8] = target: D1 dopamine receptor (Homo sapiens, UniProt P21728)
D1 dopamine receptor, sequence (P21728 whole entry): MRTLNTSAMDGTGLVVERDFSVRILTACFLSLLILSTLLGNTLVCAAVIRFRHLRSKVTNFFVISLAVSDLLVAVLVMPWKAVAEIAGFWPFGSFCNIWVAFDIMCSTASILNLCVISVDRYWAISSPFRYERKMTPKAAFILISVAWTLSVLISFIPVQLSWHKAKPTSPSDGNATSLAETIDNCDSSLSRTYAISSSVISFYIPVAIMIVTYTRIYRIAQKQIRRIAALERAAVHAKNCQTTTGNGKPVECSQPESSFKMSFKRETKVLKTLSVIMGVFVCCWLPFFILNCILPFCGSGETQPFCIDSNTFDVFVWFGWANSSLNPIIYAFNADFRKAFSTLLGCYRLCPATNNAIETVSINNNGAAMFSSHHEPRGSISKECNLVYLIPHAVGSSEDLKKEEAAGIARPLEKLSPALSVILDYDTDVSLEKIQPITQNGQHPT
Description: (§2) These concentrations were tested in cell lines expressing select human cloned dopamine receptors (D2S, D3).

[9] = target: D5 dopamine receptor (Homo sapiens, UniProt P21918)
D5 dopamine receptor, sequence (P21918 whole entry): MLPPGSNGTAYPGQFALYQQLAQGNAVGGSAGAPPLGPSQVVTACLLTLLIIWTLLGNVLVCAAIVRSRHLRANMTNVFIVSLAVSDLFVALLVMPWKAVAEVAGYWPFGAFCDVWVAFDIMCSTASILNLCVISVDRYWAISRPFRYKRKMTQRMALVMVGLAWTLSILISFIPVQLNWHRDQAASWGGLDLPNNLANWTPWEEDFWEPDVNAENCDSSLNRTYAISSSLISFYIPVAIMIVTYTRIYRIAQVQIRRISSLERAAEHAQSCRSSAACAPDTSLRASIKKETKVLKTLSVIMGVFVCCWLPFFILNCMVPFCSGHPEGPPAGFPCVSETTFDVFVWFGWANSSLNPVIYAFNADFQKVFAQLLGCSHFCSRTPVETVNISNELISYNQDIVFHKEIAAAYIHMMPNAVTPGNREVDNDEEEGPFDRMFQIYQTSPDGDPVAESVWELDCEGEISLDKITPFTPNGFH
Description: as §2

[10] = in vivo; conditions: male, dog, po
Description: (§4) Three groups of four non-naïve male beagle dogs were used in the study. […] Doses were administered orally by gavage and clinical observations were taken continuously following dosing: hourly for the first four hours, and then twice daily cage-side observations for the duration of the inter-dose or post-dose interval. Observations were made of clinical signs, mortality, injury and availability of food and water. Animals were fasted for 24 hr prior to dosing. Dogs in each group were exposed to only one drug, or the combination; each dose was administered only once, with a subsequent dose administered after a recovery period of 4 days.

[11] = tested on: male beagle dogs; conditions: based on dog data, 70 kg human subject
Description: as §4

[12] = Day 1, 100 mg oral dose, fasted
[13] = Day 7, 50 mg Q12H on Days 3 through 6 and a single dose on Day 7, fasted
[14] = Day 7, 100 mg Q12H on Days 3 through 6 and a single dose on Day 7, fasted

CCCN[C@@H]1CCc2nc(N)sc2C1 [(R)-pramipexole, (6R)-4,5,6,7-tetrahydro-N6-propyl-2,6-benzothiazole-diamine]
target organ toxicity by histopathology examination ([1]; rat, in vivo, 300 mg/kg): some target organ toxicity
test article related deaths ([1]; rats, 3 months, 30, 100, 300 mg/kg): no test article related deaths
mortality ([1]; rats, high dose 500 mg/kg, 14 days): caused mortality
NOAEL at 3 months [2]: 100 mg/kg
NOAEL at 14 days [2]: 150 mg/kg
mortality and clinical observations between the 13-week and 26-week sacrifices [3]: no mortalities attributed to test article or significant clinical observations
mortality between the 13-week and 26-week sacrifices [4]: no mortalities at any dose level
increase of AUC(0-12) from Day 1 to Day 7 ([5]; 50 mg Q12H): 40%
increase of Cmax from Day 1 to Day 7 ([5]; 50 mg Q12H): 37%
CL/F (mean ± SD) ([5]; 50 mg Q12H (Day 1), Fasted): 571 ± 107 mL/h
CL/F (mean ± SD) ([5]; 50 mg Q12H (Day 7), Fasted): 585 ± 81.6 mL/h
increase of AUC(0-12) from Day 1 to Day 7 ([5]; 100 mg Q12H): 38%
increase of Cmax from Day 1 to Day 7 ([5]; 100 mg Q12H): 24%
CL/F (mean ± SD) ([5]; 100 mg Q12H (Day 1), Fasted): 665 ± 107 mL/h
CL/F (mean ± SD) ([5]; 100 mg Q12H (Day 7), Fasted): 684 ± 76.1 mL/h
AUC(0−12) (mean ± SD) ([5]; Day 1, 50 mg oral dose, fasted): 1,035 ± 121 h · ng/mL
AUC(0−t) (mean ± SD) ([5]; Day 1, 50 mg oral dose, fasted): 1,463 ± 280 h · ng/mL
AUC(inf) (mean ± SD) ([5]; Day 1, 50 mg oral dose, fasted): 1,502 ± 280 h · ng/mL
CL/F (mean ± SD) ([5]; Day 1, 50 mg oral dose, fasted): 34300 ± 6420 mL/h
λz (mean ± SD) ([5]; Day 1, 50 mg oral dose, fasted): 0.1132 ± 0.0230 h⁻¹
AUC(0−12) (mean ± SD) [5, 12]: 1,776 ± 260 h · ng/mL
AUC(0−t) (mean ± SD) [5, 12]: 2,545 ± 497 h · ng/mL
CL/F (mean ± SD) [5, 12]: 39900 ± 6420 mL/h
λz (mean ± SD) [5, 12]: 0.1073 ± 0.0161 h⁻¹
AUC(0-12) (mean ± SD) [5, 13]: 1,449 ± 221 h · ng/mL
CL/F (mean ± SD) [5, 13]: 35100 ± 4900 mL/h
λz (mean ± SD) [5, 13]: 0.1025 ± 0.0186 h⁻¹
AUC(0-12) (mean ± SD) [5, 14]: 2,465 ± 299 h · ng/mL
CL/F (mean ± SD) [5, 14]: 41000 ± 4570 mL/h
λz (mean ± SD) [5, 14]: 0.0894 ± 0.0117 h⁻¹
projected steady-state exposure (AUC) ([5]; humans, total daily dose 500 mg as 250 mg Q12H): approximately 7,000 h*ng/mL
safety and tolerability ([5]; multiple oral doses of 50 and 100 mg twice daily): safe and well-tolerated
incidence of emesis (at least one episode) ([6]; both, minipig, in vivo, 75 mg/kg, 14 days): 5 of 8
NOAEL ([6]; minipigs, 2 weeks (14 days)): greater than or equal to 75 mg/kg
Cmax ([7]; oral, 50 mg): 191 ± 20.9 ng/mL
Tmax ([7]; oral, 50 mg): 1.75 h
Vd/F ([7]; oral, 50 mg): 346 ± 30.1 L
AUC(0-t) ([7]; oral, 50 mg, AUC(0-12) (mean ± SD), Day 7, 50 mg Q12H on Days 3 through 6 and a single dose on Day 7, fasted): 1450 ng·h/mL
AUC(0-t) ([7]; oral, 50 mg, mean exposure AUC(0-12) at Day 7, 50 mg Q12H): 1450 ng·h/mL
Cmax ([7]; oral, 100 mg): 306 ± 55 ng/mL
Tmax ([7]; oral, 100 mg): 2 h
AUC(0-t) ([7]; oral, 100 mg, AUC(0-12) (mean ± SD), Day 7, 100 mg Q12H on Days 3 through 6 and a single dose on Day 7, fasted): 2460 ng·h/mL
AUC(0-t) ([7]; oral, 100 mg, mean exposure AUC(0-12) at Day 7, 100 mg Q12H): 2460 ng·h/mL
AUC(0-inf) ([7]; po, 50 mg): 1500 ng·h/mL
Tmax ([7]; po, 50 mg): 1.83 h
Vd/F ([7]; po, 50 mg): 306 ± 45.8 L
AUC(0-t) ([7]; po, 50 mg, AUC(0−12) (mean ± SD), Day 1, 50 mg oral dose, fasted): 1040 ng·h/mL
AUC(0-t) ([7]; po, 50 mg, AUC(0−t) (mean ± SD), Day 1, 50 mg oral dose, fasted): 1460 ng·h/mL
AUC(0-inf) ([7]; po, 100 mg): 2570 ng·h/mL
Cmax ([7]; po, 100 mg): 248 ± 30.4 ng/mL
Tmax ([7]; po, 100 mg): 1.92 h
Vd/F ([7]; po, 100 mg): 373 ± 51 L
AUC(0-t) ([7]; po, 100 mg, AUC(0−12) (mean ± SD), Day 1, 100 mg oral dose, fasted): 1780 ng·h/mL
AUC(0-t) ([7]; po, 100 mg, AUC(0−t) (mean ± SD), Day 1, 100 mg oral dose, fasted): 2540 ng·h/mL
interaction with D1 dopamine receptor [8]: no significant interaction
interaction with D5 dopamine receptor [9]: no significant interaction
MTD at 4 days [10]: 75 mg/kg
NOAEL at 4 days [10]: 25 mg/kg
human equivalence dose of the MTD [11]: about 3,000 mg
